Patent US20260344668A1, “PHENYLPYRAZOLE COMPOUND, AND PLANT DISEASE CONTROL METHOD” (priority 2022, published 2026)

Legend:
Cochliobolus miyabeanus = assay: Test Example 6 Control Test Against Rice Brown Spot Fungus (96 well titer plate growth); type: cell-based; conditions: 1 μL of 150 ppm DMSO solution + 150 μL YB liquid medium, 23° C., 3 days, absorbance at 550 nm
Method: (§1) The term of “non-treated well” in Test Example 4, Test Example 5, and Test Example 6 represents a well wherein a test was carried out under the same conditions as those described in each Test Example except for dispensing DMSO instead of a diluted solution with DMSO comprising the Present compound. Also, the term of “non-treated” in Test Examples 15 to 17 represents a test which was carried out under the same conditions as those described in each Test Example except for dispensing DMSO instead of a diluted solution with DMSO comprising the Present compound. Also, the term of “non-treated leaf disk” in Test Example 7 represents a leaf disk wherein a test was carried out under the same conditions as those described in the Test Example except for dispensing DMSO instead of a diluted solution with DMSO comprising the Present compound. Also, the term of “non-treated” in Test Example 10 and Test Example 11 means that a diluted solution with water of a formulation comprising the Present compound was not sprayed.
Each of the Present compound 17, 33, 36, 37, 39, 40, 41, 42, 43, 44, 48, 49, 50, 51, 52, 53, 62, 68, 69, 70, 71, 76, 77, 79, 80, 81, 82, 83, 84, or 97 was diluted with DMSO to obtain a diluted solution containing 150 ppm of each compound, and 1 μL of the diluted solution was dispensed into a titer plate (96 well), and thereto was then dispensed 150 μL of a YB liquid medium to which spores of Cochliobolus miyabeanus were inoculated in advance. This plate was cultured at 23° C. for 3 days, thereby allowing Cochliobolus miyabeanus to undergo proliferation, and the absorbance at 550 nm of each well of the titer plate was then measured to determine a degree of growth of Cochliobolus miyabeanus. As a result, the degree of growth in the well treated with each of the above Present compounds was 50% or less relative to the degree of growth in the non-treated well.

[1] = tested on: soybean rust fungus (Phakopsora pachyrhizi) having an amino acid substitution of F129L in a mitochondrial cytochrome b protein; assay: Test Example 7 Control Test Against Soybean Rust (leaf disk); type: in vivo; conditions: 200 ppm, 10 μL per soybean leaf disk (cultivar: Kurosengoku), inoculated after 1 day
Method: as §1
A true leaf of a soybean (cultivar: Kurosengoku) was cut into a diameter of 1 cm to prepare each leaf disk. To each well of a 24 well microplate was dispensed 1 mL of an agar medium (agar concentration 1.2%), and then one of said leaf disk was placed on the agar medium in each well. To a mixture of Sorpol (registered trademark) 1200KX (0.5 μL), DMSO (4.5 μL), and xylene (5 μL) was added a DMSO solution (20 μL) comprising a test compound (10000 ppm), and the resulting mixture was mixed. The resulting mixture was diluted with ion exchange water to prepare a mixture comprising a prescribed concentration of the test compound.
The resulting mixture was sprayed into each leaf disk at a ratio of 10 μL per leaf disk. After 1 day, an aqueous suspension of spores of soybean rust fungus (Phakopsora pachyrhizi) having an amino acid substitution of F129L in a mitochondrial cytochrome b protein (1.0×10^5/mL) was inoculated by spraying on each leaf disk. After the inoculation, the microplate was placed into an artificial climate chamber (Lighting: 6 hours, Lights-out: 18 hours, Temperature: 23° C., Humidity: 60%). After 1 day, the leaf disks were air-dried until water droplets on the surfaces of the leaf disks disappeared, and the microplate was placed into the artificial climate chamber again for 12 days. Then, lesion area of soybean rust was investigated. As a result, when the prescribed concentration was 200 ppm, each lesion area of leaf disk treated with any one of the Present compound 9, 10, 11, 13, 14, 15, 16, 17, 18, 20, 32, 33, 34, 35, 36, 37, 38, 39, 40, 42, 43, 44, 47, 48, 49, 50, 51, 52, 53, 55, 56, 57, 58, 62, 63, 64, 65, 66, 67, 68, 69, 70, 71, 73, 74, 75, 76, 77, 78, 79, 80, 81, 82, 83, 84, 85, 86, 87, 88, 89, 90, 91, 92, 93, 94, 95, 96, 97, 98, 99, 100, 101, or 102 as the test compound was 30% or less relative to the lesion area of non-treated leaf disk.

Phakopsora pachyrhizi [2] = assay: Test Example 15 Control Test Against Soybean Rust Fungus (spore germination, 96 well titer plate); type: cell-based; conditions: treatment concentration 1 ppm, 23° C., several hours
Method: as §1
The Present compound was diluted with DMSO to obtain a diluted solution containing 150 ppm of the compound, and 1 μL of the diluted solution was dispensed into a titer plate (96 well), and thereto was then dispensed 149 μL of an aqueous suspension (1.0×10^4/mL) of spores of Phakopsora pachyrhizi to which spores of Phakopsora pachyrhizi were suspended in advance. This plate was cultured at 23° C. for several hours, and then germinated spores of Phakopsora pachyrhizi were counted. As a result, when the treatment concentration was 1 ppm, the number of germinated spores in each well comprising any one of the Present compound 1, 11, 17, 18, 20, 23, 30, 33, 34, 35, 36, 37, 38, 39, 40, 41, 42, 43, 44, 46, 47, 48, 49, 50, 51, 52, 53, 54, 55, 56, 57, 58, 62, 63, 64, 65, 66, 67, 68, 69, 70, 71, 72, 73, 74, 75, 76, 77, 78, 79, 80, 81, 82, 83, 84, 85, 86, 87, 88, 89, 90, 91, 92, 93, 94, 95, 96, 97, 98, 99, 100, 101, or 102 as the test compound was 50% or less relative to the number of germinated spores in the non-treated well.

Phakopsora pachyrhizi [3] = assay: Test Example 11 Control Test Against Soybean Rust (pot test, spraying before inoculation); type: in vivo; conditions: 200 ppm foliage spray, soybeans (Kurosengoku), inoculated after 2 to 5 days
Method: as §1
A plastic pot was filled with soil, soybeans (cultivar: Kurosengoku) were seeded thereto, and cultured in a greenhouse for 10 to 14 days. The Present compound 9, 10, 11, 13, 14, 15, 17, 18, 20, 21, 22, 23, 26, 27, 33, 34, 35, 36, 37, 38, 39, 40, 41, 42, 43, 44, 46, 47, 53, 54, 55, 56, 57, 58, 66, 67, 68, 69, 70, 71, 73, 74, 75, 76, 77, 78, 79, 80, 81, 82, 83, 84, 85, 86, 87, 88, 89, 90, 91, 92, 93, 94, 95, 96, 97, 98, 99, 100, 101, or 102 formulated according to the method described in the Formulation Example 1 was mixed with water in such a way that the concentration thereof was 200 ppm, and the resulting mixture was sprayed to foliage of the above soybeans so as to adequately adhere onto the surfaces of leaves of the above soybeans. After spraying the mixture, the soybeans were air-dried. After 2 to 5 days, an aqueous suspension of spores of Phakopsora pachyrhizi was inoculated by spraying to the soybeans. After the inoculation, the soybeans were placed in a greenhouse at 23° C. in daytime and at 20° C. in nighttime under a humid condition for 1 to 2 day(s), then cultured in a greenhouse for 12 days, and then a lesion area was investigated. As a result, the lesion area in the soybeans treated with each of the above Present compound was 30% or less relative to the lesion area in the non-treated soybeans.

Row | SMILES | degree of growth relative to the degree of growth in the non-treated well (Cochliobolus miyabeanus) [%] | lesion area relative to the lesion area of non-treated leaf disk [1] [%] | number of germinated spores relative to the non-treated well (Phakopsora pachyrhizi [2]) [%] | lesion area relative to the lesion area in the non-treated soybeans (Phakopsora pachyrhizi [3]) [%]
1 | Cn1nccc1S(=O)(=O)n1ccc(-c2cc(F)c(Br)c(F)c2)n1 [compound 48] | ≤ 50 | ≤ 30 | ≤ 50 | 
2 | O=S(=O)(c1ccco1)n1ccc(-c2ccc(Br)cc2)n1 [compound 49] | ≤ 50 | ≤ 30 | ≤ 50 | 
3 | COc1ccc(-c2ccn(S(=O)(=O)c3cccnc3)n2)cc1 [compound 58] |  | ≤ 30 | ≤ 50 | ≤ 30
4 | O=S(=O)(c1cccs1)n1ccc(-c2ccc3ocnc3c2)n1 [compound 67] |  | ≤ 30 | ≤ 50 | ≤ 30
5 | O=S(=O)(c1ccco1)n1ccc(-c2cc(F)cc(F)c2)n1 [compound 73] |  | ≤ 30 | ≤ 50 | ≤ 30
6 | O=S(=O)(c1ccoc1)n1ccc(-c2cc(F)cc(F)c2)n1 [compound 74] |  | ≤ 30 | ≤ 50 | ≤ 30
7 | O=S(=O)(c1cccs1)n1ccc(-c2cc(F)cc(F)c2)n1 [compound 75] |  | ≤ 30 | ≤ 50 | ≤ 30
8 | O=S(=O)(c1ccco1)n1ccc(-c2ccccc2)n1 [compound 85] |  | ≤ 30 | ≤ 50 | ≤ 30
9 | O=S(=O)(c1ccoc1)n1ccc(-c2ccccc2)n1 [compound 86] |  | ≤ 30 | ≤ 50 | ≤ 30
10 | O=S(=O)(c1cccs1)n1ccc(-c2ccccc2)n1 [compound 87] |  | ≤ 30 | ≤ 50 | ≤ 30
11 | O=S(=O)(c1ccco1)n1ccc(-c2ccc(F)cc2)n1 [compound 88] |  | ≤ 30 | ≤ 50 | ≤ 30
12 | O=S(=O)(c1cccs1)n1ccc(-c2ccc(F)cc2)n1 [compound 90] |  | ≤ 30 | ≤ 50 | ≤ 30
13 | O=S(=O)(c1ccco1)n1ccc(-c2ccc(F)c(F)c2)n1 [compound 91] |  | ≤ 30 | ≤ 50 | ≤ 30
14 | O=S(=O)(c1ccco1)n1ccc(-c2cccc(F)c2)n1 [compound 94] |  | ≤ 30 | ≤ 50 | ≤ 30
15 | O=S(=O)(c1ccoc1)n1ccc(-c2cccc(F)c2)n1 [compound 95] |  | ≤ 30 | ≤ 50 | ≤ 30
16 | O=S(=O)(c1cccnc1)n1ccc(-c2cc(F)cc(F)c2)n1 [compound 98] |  | ≤ 30 | ≤ 50 | ≤ 30
17 | O=S(=O)(c1cncc(F)c1)n1ccc(-c2cc(F)c(Br)c(F)c2)n1 [compound 100] |  | ≤ 30 | ≤ 50 | ≤ 30
18 | O=S(=O)(c1cccnc1)n1ccc(-c2ccc(F)c(F)c2)n1 [compound 101] |  | ≤ 30 | ≤ 50 | ≤ 30
